According to paper PMC6122585 (Bioconjugate chemistry, 2017):

Key:
αvβ5 = details: cited from earlier work
αvβ3 = details: cited from earlier work
SW480 ITGB6 high cells = assay: Long-term cytotoxicity, SW480 ITGB6 high; format: cell-based, human; details: SW480 versus SW480 ITGB6 high, Figure S7

| Substance | αvβ5 integrin targeting (in words) (αvβ5) | αvβ3 integrin targeting (in words) (αvβ3) | effect of ITGB6 transfection on sensitivity (SW480 ITGB6 high cells) |
| --- | --- | --- | --- |
| c(RGDfK) | target αvβ3 and αvβ5 integrins | target αvβ3 and αvβ5 integrins |  |
| cilengitide (RGDFV; chains of the INN, looked up) |  |  | ITGB6 transfection did not impact on the sensitivity |
